Experiments:
[1] = tested on: SUDHL6 xenograft tumor tissue; experiment: Immunofluorescence on paraffin-embedded tumor sections after one IKE dose; type: in vivo, NCG mice; conditions: 4 h after one dose of IKE
Procedure: NCG mice 6-weeks of age were injected with 10 million SUDHL-6 cells subcutaneously. Visible tumors appeared after 2 weeks. Tumor size was measured by electronic caliper every 2 days and calculated using the formula: 0.5×length×width^2. After another 2 weeks, mice were randomly separated into group of 3 mice per cage with roughly tumor size (1200 mm^3). Mice were dosed at 50 mg/kg IKE, 22 mg/kg IKE, 22 mg/kg IKE PEG-PLGA nanoparticles (equal to 600 mg/kg PEG-PLGA) using IP at one time and samples were collected at 0, 1, 2, 3, 4, 6, and 24 h with three mice per time point. Mice were dosed with Vehicle 1 and Vehicle 2 (600 mg/kg PEG-PLGA) by IP and samples were collected at 24 h. Mice were euthanized using a CO2 gas chamber before xenograft dissection and cardio puncture. Plasma samples were collected and analyzed as described above. […] After drying, the samples were resuspended in 100 μL of methanol and analyzed on the LC-MS with each sample analyzed twice. […] The concentration of IKE in the sample was determined by comparison against a standard curve of IKE in the range of 25 to 2,500 ng/mL. […] Pharmacokinetics parameters of IKE were assessed using Prism fitted with Lognormal of one phase exponential decay. […]
Tumor tissue was fixed in 4% paraformaldehyde (PFA) for 24 h at 4° C. followed by washing three times with PBS. […] Then the above steps were followed for staining and quantification.

SUDHL6 cells = experiment: Immunofluorescence of MDA (mAb 1F83) on cells; type: cell-based; conditions: 10 μM IKE for 6 hours vs DMSO
Procedure: SUDHL-6 cells were treated with IKE. The cells were harvested by centrifugation and washed with PBS once. The cells were resuspended in PBS, fixed by adding equal volume of 4% paraformaldehyde (PFA), and incubated at room temperature for 15 min. The cells were washed with PBS/0.1% Tween 20 (PBST) twice, resuspended in 10% goat serum (ThermoFisher 50197Z) for 1 h. The cells were incubated with mouse mAb 1F83, which specifically recognizes malondialdehyde (MDA)-lysine adduct 4-methyl-1,4-dihydropyridine-3,5-dicarbaldehyde (MDHDC) (Yamada et al. 2001, Hyvarinen et al. 2014) (1:100 dilution) overnight at 4° C. The cells were washed with PBS three times by centrifugation. The cells were incubated with goat anti-mouse IgG H&L (Alexa Fluor 647) (Abcam ab150115) (1:1000) at room temperature for 1 h. The cells were washed with PBST twice by centrifugation, then resuspended in PBS in 24-well plate with poly-lysine-(Sigma Aldrich P4832)-coated cover slips and centrifuged at 1,000×g for 10 min. […] When applicable, line-scan analysis was performed on representative confocal microscopy images using Zeiss LSM software to qualitatively visualize fluorescence overlap. The intensity above threshold of the fluorescent signal of the bound antibodies was analyzed using NIH ImageJ software. Data were expressed as fold change compared with the vehicle.

[2] = Erastin and IKE solubility measurements (nephelometry); type: physicochemical
Procedure: Solubility measurement samples were prepared in a 96-well Corning Costar plate with two at 1% and 5% DMSO v/v with a total sample volume of 200 μL in MilliQ water. A BMG Labtech NEPHELOstar nephelometer was used to measure turbidity of the samples with the following parameters per the instrument manufacturer: Gain=80, Laser Focus=2.50 mm, and Laser Intensity=90%. Samples were shaken in the nephelometer by orbital shaking for 3 s prior to the turbidity measurement. Sample values were blanked in the instrument software using the corresponding water and DMSO condition values. Turbidity 4000 NTU Calibration Standard-Formazin (Millipore-Sigma) was used as a positive control for all turbidity measurements. The turbidity of each sample was measured within 20 minutes of initial preparation. After the initial measurement, the sample plates were covered with aluminum sealing film and allowed to sit overnight at room temperature prior to re-measuring.

With `CC(C)Oc1ccc(C(=O)Cn2ccnc2)cc1-n1c(CN2CCN(C(=O)COc3ccc(Cl)cc3)CC2)nc2ccccc2c1=O` [IKE, Imidazole ketone erastin] the “increase of 8-OHdG (fluorescence intensity) relative to vehicle” value [1] was 1.5 fold, the “increase of dihydropyridine-MDA-lysine adducts (fluorescence intensity) relative to vehicle” value [1] was 1.6 fold and the “MDA immunofluorescence intensity increase” value (SUDHL6 cells) was 3.4 fold. For the same molecule, the “water solubility (in words)” value [2] was “soluble under acidic aqueous conditions, but not to the same degree under neutral aqueous conditions”.

— patent publication US20210267978A1, “NANOPARTICLE FORMULATIONS OF IKE AND METHODS OF USE THEREOF” (The Trustees of Columbia University in the City of New York, priority 2018, published 2021)
